Measured values taken from article PMC10233829 (ACS Omega, 2023).
Converted amounts (≈) assume the structure as drawn.

Tests used:
S. aureus NCTC 4163 = assay: MIC, twofold microdilution, standard strain; format: cell-based; settings: Staphylococcus aureus, NCTC4163, 18 h
S. aureus ATCC 25923 = assay: MIC, twofold microdilution, standard strain; format: cell-based; settings: Staphylococcus aureus, ATCC25923, 18 h
S. aureus ATCC 6538 = assay: MIC, twofold microdilution, standard strain; format: cell-based, Staphylococcus aureus; settings: Staphylococcus aureus, ATCC6538; standard strain, 18 h
S. aureus ATCC 29213 = assay: MIC, twofold microdilution, standard strain; format: cell-based; settings: Staphylococcus aureus, ATCC29213, 18 h
[1] = tested on: S. epidermidis ATCC 12228; assay: MIC, twofold microdilution, standard strain; format: cell-based; settings: Staphylococcus epidermidis, ATCC12228, 18 h
[2] = tested on: S. epidermidis ATCC 35984; assay: MIC, twofold microdilution, standard strain; format: cell-based; settings: Staphylococcus epidermidis, ATCC35984, 18 h
P. aeruginosa ATCC 15442 = assay: MIC, twofold microdilution, standard strain; format: cell-based, Pseudomonas aeruginosa; settings: Pseudomonas aeruginosa, ATCC15442; standard strain, 18 h
E. coli ATCC 25922 = assay: MIC, twofold microdilution, standard strain; format: cell-based, Escherichia coli; settings: Escherichia coli, ATCC25922; standard strain, 18 h
S. aureus 180 = assay: MIC, twofold microdilution, clinical strain; format: cell-based; settings: Staphylococcus aureus, 18 h
S. aureus 5595 = assay: MIC, twofold microdilution, clinical strain; format: cell-based; settings: Staphylococcus aureus, 18 h
S. aureus T5595 = assay: MIC, twofold microdilution, clinical strain; format: cell-based, Staphylococcus aureus; settings: for MIC: Staphylococcus aureus, T5595, 18 h
S. aureus T5591 = assay: MIC, twofold microdilution, clinical strain; format: cell-based, Staphylococcus aureus; settings: for MIC: Staphylococcus aureus, T5591, 18 h
S. epidermidis 4341 = assay: MIC, twofold microdilution, clinical strain; format: cell-based; settings: Staphylococcus epidermidis, 18 h
S. epidermidis 5253 = assay: MIC, twofold microdilution, clinical strain; format: cell-based, Staphylococcus epidermidis; settings: Staphylococcus epidermidis, 5253, 18 h
S. epidermidis KR4243/1 = assay: MIC, twofold microdilution, clinical strain; format: cell-based; settings: Staphylococcus epidermidis, 18 h
S. pasteuri KR 4358 = assay: MIC, twofold microdilution, clinical strain; format: cell-based; settings: Staphylococcus pasteuri, KR4358, 18 h
P. aeruginosa 37 = assay: MIC, twofold microdilution, clinical strain; format: cell-based; settings: Pseudomonas aeruginosa, 18 h
P. aeruginosa 659 = assay: MIC, twofold microdilution, clinical strain; format: cell-based; settings: Pseudomonas aeruginosa, 18 h
E. coli 951 = assay: MIC, twofold microdilution, clinical strain; format: cell-based; settings: Escherichia coli, 18 h
E. coli 520 = assay: MIC, twofold microdilution, clinical strain; format: cell-based; settings: Escherichia coli, 18 h
E. coli 600 = assay: MIC, twofold microdilution, clinical strain; format: cell-based, Escherichia coli; settings: for MIC: Escherichia coli, 600, 18 h
E. cloacae 8 = assay: MIC, twofold microdilution, clinical strain; format: cell-based, Escherichia cloacae; settings: Enterobacter cloacae, 8; clinical strain, 18 h
K. pneumoniae 28 = assay: MIC, twofold microdilution, clinical strain; format: cell-based; settings: Klebsiella pneumoniae, 18 h
K. pneumoniae 510 = assay: MIC, twofold microdilution, clinical strain; format: cell-based, Klebsiella pneumoniae; settings: Klebsiella pneumoniae, 510; clinical strain, 18 h
M. tuberculosis H37Rv = assay: Tuberculostatic activity, Microplate Alamar Blue Assay (MIC); format: cell-based, Mycobacterium tuberculosis; settings: Mycobacterium tuberculosis, H37RV; MABA; read-out: MIC M. tuberculosis H37Rv
[3] = tested on: M. tuberculosis Spec. 192; assay: as above; format: cell-based; settings: Mycobacterium tuberculosis, MABA, read-out: MIC M. tuberculosis Spec. 192 (sensitive to tuberculostatics)
M. tuberculosis Spec 210 = assay: microbe, parasite or virus in culture; format: cell-based, Mycobacterium tuberculosis; settings: M. tuberculosis Spec. 210
PC3 cells = assay: MTT assay, cytotoxic activity; format: cell-based, human; settings: Homo sapiens, PC-3, 72 h, MTT, 72 h
Method: Metastatic prostate cancer (PC3) and human immortal keratinocyte (HaCaT) cell lines were purchased from the American Type Culture Collection (ATCC, Rockville, MD, USA) and cultured in MEM (minimal essential medium, Thermo Sci, USA), RPMI 1640 (Roswell Park Memorial Institute, Biowest SAS, France), and DMEM (Dulbecco’s Modified Eagle’s Medium, Biowest SAS, France). Cells were seeded in 6 mL medium in a tissue culture flask (50 mL) in a 37 °C/5% CO2 humidified incubator. […] MTT analysis was performed according to a previous study.[59] Untreated cells were used as controls. Cell absorbance results were inserted into the formula for the relative MTT level (%). It allows to calculate the viability of cells under the influence of the tested compounds. Cell viability was expressed as the percentage of MTT reduction in cells treated with tested compounds compared to the control sample. The relative MTT level was calculated using the formula [100%] = A/B × 100% where A—the test sample absorbance and B—the control sample absorbance.

[4] = MTT assay, cytotoxic activity; format: cell-based; settings: human, HaCaT cells (immortal keratinocytes); MTT, 72 h, normal cell line; read-out: IC50 HaCaT
Method: Cells were seeded in 6 mL medium in a tissue culture flask (50 mL) in a 37 °C/5% CO2 humidified incubator. […] MTT analysis was performed according to a previous study.[59] Untreated cells were used as controls. Cell absorbance results were inserted into the formula for the relative MTT level (%). It allows to calculate the viability of cells under the influence of the tested compounds. Cell viability was expressed as the percentage of MTT reduction in cells treated with tested compounds compared to the control sample. The relative MTT level was calculated using the formula [100%] = A/B × 100% where A—the test sample absorbance and B—the control sample absorbance.

[5] = tested on: clinical bacterial strains; assay: MIC, clinical isolates as groups of strains; format: cell-based; settings: for MIC: clinical strains, read-out: MIC against selected E. coli and E. cloacae strains
[6] = tested on: Staphylococci (standard strains); assay: MIC, standard Gram-positive strains as a panel; format: cell-based, S. aureus, S. epidermidis; settings: standard Gram-positive strains of Table 1; read-out: MIC toward standard Staphylococci (range over strains)
[7] = tested on: P. aeruginosa ATCC 15442 and E. coli ATCC 25922; assay: MIC, standard Gram-negative rods as a panel; format: cell-based; settings: P. aeruginosa ATCC 15442, E. coli ATCC 25922; read-out: MIC against standard Gram-negative rods (range over strains)

| Compound | MIC (S. aureus NCTC 4163) [µg/mL] | MIC (S. aureus ATCC 25923) [µg/mL] | MIC (S. aureus ATCC 6538) [µg/mL] | MIC (S. aureus ATCC 29213) [µg/mL] | MIC [1] [µg/mL] | MIC [2] [µg/mL] | MIC (P. aeruginosa ATCC 15442) [µg/mL] | MIC (E. coli ATCC 25922) [µg/mL] | MIC (S. aureus 180) [µg/mL] | MIC (S. aureus 5595) [µg/mL] | MIC (S. aureus T5595) [µg/mL] | MIC (S. aureus T5591) [µg/mL] | MIC (S. epidermidis 4341) [µg/mL] | MIC (S. epidermidis 5253) [µg/mL] | MIC (S. epidermidis KR4243/1) [µg/mL] | MIC (S. pasteuri KR 4358) [µg/mL] | MIC (P. aeruginosa 37) [µg/mL] | MIC (P. aeruginosa 659) [µg/mL] | MIC (E. coli 951) [µg/mL] | MIC (E. coli 520) [µg/mL] | other results |
| --- | --- | --- | --- | --- | --- | --- | --- | --- | --- | --- | --- | --- | --- | --- | --- | --- | --- | --- | --- | --- | --- |
| O=C(O)c1cn(C2CC2)c2cc(N3CCN(CCCC(=O)N4CCN(c5cc6c(cc5F)c(=O)c(C(=O)O)cn6C5CC5)CC4)CC3)c(F)cc2c1=O [Compound 18, CP–Butyryl–CP Dimer] | 2 (≈ 2.74 µM) | 4 (≈ 5.47 µM) | 2 (≈ 2.74 µM) | 4 (≈ 5.47 µM) | 1 (≈ 1.37 µM) | 16 (≈ 21.9 µM) | 4 (≈ 5.47 µM) | 16 (≈ 21.9 µM) | 6.4 (≈ 8.76 µM) | 6.4 (≈ 8.76 µM) | 6.4 (≈ 8.76 µM) | 6.4 (≈ 8.76 µM) | > 25.6 | > 25.6 | 3.2 (≈ 4.38 µM) | 3.2 (≈ 4.38 µM) | 12.8 (≈ 17.5 µM) | > 25.6 | 6.4 (≈ 8.76 µM) | 1.6 (≈ 2.19 µM) | MIC (E. coli 600): 0.4 µg/mL (≈ 0.547 µM); MIC (E. cloacae 8): 0.8 µg/mL (≈ 1.09 µM); MIC (K. pneumoniae 28): > 25.6 µg/mL; MIC (K. pneumoniae 510): > 25.6 µg/mL; MIC (M. tuberculosis H37Rv): 8 µg/mL (≈ 10.9 µM); MIC [3]: 16 µg/mL (≈ 21.9 µM); fold more effective than the reference tuberculostatics (M. tuberculosis Spec 210): 2–8 fold; IC50 (PC3 cells): > 100 µM; IC50 at 72 h [4]: 92.2 ± 8.7 µM; MIC [5]: 0.1 to 0.8 µg/mL (≈ 0.137 to 1.09 µM) |
| O=C(O)c1cn(C2CC2)c2cc(N3CCN(C(=O)CCCC(F)(F)F)CC3)c(F)cc2c1=O [Compound 16, 7-[4-(5,5,5-Trifluoropentanoyl)-piperazin-1-yl]-1-cyclopropyl-6-fluoro-4-oxo-1,4-dihydro-quinoline-3-carboxylic Acid] | 0.2 (≈ 0.426 µM) | 0.2 (≈ 0.426 µM) | 0.2 (≈ 0.426 µM) | 0.2 (≈ 0.426 µM) | 0.2 (≈ 0.426 µM) | 0.2 (≈ 0.426 µM) | 1 (≈ 2.13 µM) | 1.6 (≈ 3.41 µM) | 1 (≈ 2.13 µM) | 1 (≈ 2.13 µM) | 0.4 (≈ 0.852 µM) | 0.4 (≈ 0.852 µM) | 25.6 (≈ 54.5 µM) | > 25.6 | 0.4 (≈ 0.852 µM) | 0.4 (≈ 0.852 µM) | > 25.6 | > 25.6 | > 25.6 | 3.2 (≈ 6.82 µM) | MIC (E. coli 600): 6.4 µg/mL (≈ 13.6 µM); MIC (E. cloacae 8): 8 µg/mL (≈ 17 µM); MIC (K. pneumoniae 28): > 25.6 µg/mL; MIC (K. pneumoniae 510): > 25.6 µg/mL; MIC (M. tuberculosis H37Rv): 64 µg/mL (≈ 136 µM); MIC [3]: 64 µg/mL (≈ 136 µM); IC50 (PC3 cells): 68.8 ± 9.9 µM; IC50 at 72 h [4]: > 100 µM; MIC [6]: 0.2 µg/mL (≈ 0.426 µM); share of the reference (CP) activity ([5]; S. aureus T5595 and T5591): 62.5% |
| O=C(O)c1cn(C2CC2)c2cc(N3CCN(C(=O)CCBr)CC3)c(F)cc2c1=O [Compound 9, 7-[4-(3-Bromopropionyl)-piperazin-1-yl]-1-cyclopropyl-6-fluoro-4-oxo-1,4-dihydro-quinoline-3-carboxylic Acid] | 0.1 (≈ 0.214 µM) | 0.2 (≈ 0.429 µM) | 0.2 (≈ 0.429 µM) | 0.2 (≈ 0.429 µM) | 0.2 (≈ 0.429 µM) | 0.2 (≈ 0.429 µM) | 12.8 (≈ 27.4 µM) | 0.4 (≈ 0.858 µM) | 0.5 (≈ 1.07 µM) | 0.5 (≈ 1.07 µM) | 0.1 to 0.2 (≈ 0.214 to 0.429 µM) | 0.1 to 0.2 (≈ 0.214 to 0.429 µM) | 16 (≈ 34.3 µM) | 128 (≈ 274 µM) | 0.1 (≈ 0.214 µM) | 0.2 (≈ 0.429 µM) | 128 (≈ 274 µM) | > 25.6 | 64 (≈ 137 µM) | 0.8 (≈ 1.72 µM) | MIC S. aureus T5595 (S. aureus T5595; 18 h): 0.2 µg/mL (≈ 0.429 µM); MIC S. aureus T5591 (S. aureus T5591; 18 h): 0.1 µg/mL (≈ 0.214 µM); MIC E. coli 600 (E. coli 600; 18 h): –0.4 μg/mL; MIC (E. cloacae 8): 2 µg/mL (≈ 4.29 µM); MIC (K. pneumoniae 28): > 25.6 µg/mL; MIC (K. pneumoniae 510): > 25.6 µg/mL; MIC (M. tuberculosis H37Rv): 2 µg/mL (≈ 4.29 µM); MIC [3]: 2 µg/mL (≈ 4.29 µM); fold more effective than the reference tuberculostatics (M. tuberculosis Spec 210): 8–32 fold; IC50 (PC3 cells): 69.1 ± 5.8 µM; IC50 at 72 h [4]: > 100 µM; MIC [7]: ≤ 1 µg/mL; times more powerful than CP ([5]; S. aureus T5595 and T5591): 1.25–2.5 times; MIC [5]: 0.1 to 0.8 µg/mL (≈ 0.214 to 1.72 µM) |
